The subject of series [1] is ^125I-BMQ-metabolizing CYP isoenzymes (pooled MLMs). The series can be described thus: Inhibition of ^125I-BMQ metabolism by specific CYP inhibitors and mequitazine in pooled MLMs. Conditions: for percentage of metabolites produced from ^125I-BMQ: 37°C, 15 min; for inhibition at 15 min, 10 µM: mouse, pooled mouse liver microsomes, pH 7.4, probe ^125I-BMQ. Here is the method: These specific inhibitors were used to identify the CYPs involved in the biotransformation of ^125I-BMQ. The inhibitors and mequitazine (self-inhibitor) were dissolved at a concentration of 10 μM (0.8% [v/v] final concentration DMSO).
Samples were incubated at 37°C for 15 min with gentle shaking, and the reaction was stopped by addition of 100 µL of ethanol and centrifugation at 18,000 g for 5 min. The final supernatant was analyzed by TLC using methanol/acetic acid at a 100:1 ratio. The percentages of ^125I-BMQ metabolites in each sample were then calculated (n = 3).

Series [2] in a line: Biological distribution of ^125I-BMQ in normal mice. The following applies: tail vein injection. The class given is in vivo, mouse. Here is the method: ^125I-BMQ was prepared to a specific radioactivity of 185 kBq/mL by adding saline. A total of 20 fasting 6-week-old male ddY mice were injected with ^125I-BMQ into the tail vein (18.5 kBq/100 µL/mouse), and after 2, 10, 30, 60, and 120 min, four mice each were euthanized under isoflurane, and blood, brain, thyroid, lung, heart, liver, gallbladder, stomach, pancreas, spleen, intestine, kidney, and urine tissue were collected. The tissue was weighted and the radioactivity was measured using a γ-ray counter to calculate the injected dose percent (%ID) or injected dose percent per gram of tissue (%ID/g).

Series [3] in a line: Metabolism of ^125I-BMQ in vivo: TLC analysis of radioactive products in bile. On the set-up: species or system mouse. Here is the method:
^125I-BMQ was prepared to a specific radioactivity of 10 MBq/mL by adding saline and injected via tail vein into three mice (2.0 MBq/200 µL/mouse). […] Radioactive products in the bile were analyzed by TLC using chloroform/acetic acid/H2O at a ratio of 60:40:1. Bile was spotted directly onto the TLC plate.

For series [4], the system named is CYP (pooled mouse liver microsomes, MLMs). In words: NADPH-mediated metabolism of ^125I-BMQ in pooled mouse liver microsomes, TLC analysis. The series is classed as in vitro ADME. The following applies: 37°C, increase with reaction time. Here is the method: Animal studies were approved by the Animal Care Committee at Kanazawa University (AP-173851) and conducted in accordance with international standards for animal welfare and institutional guidelines. For preparation of pooled mouse liver microsomes (MLMs), three 6-week-old male ddY mice (Japan SLC, Tokyo, Japan) were euthanized under anesthesia using isoflurane. The liver of each mouse was removed and weighed. After adding 3 mL of Krebs-Ringer’s phosphate buffer (pH 7.4) per gram of liver, the livers were pooled and homogenized using an ultrasonic homogenizer (SONIFIER250, Branson, MO, United States). The homogenate was centrifuged for 20 min at 9,000 g, and the supernatant was centrifuged for 60 min at 100,500 g. […] The resulting precipitate was obtained as microsomes, and the protein content was determined according to the bicinchoninic acid method ([Smith et al., 1985]). […]
To analyze CYP-mediated metabolism of ^125I-BMQ, nicotinamide adenine dinucleotide phosphate (NADPH) was used as an energy source for CYP. […] The samples were then centrifuged at 18,000 g for 5 min, and the supernatant of each sample was analyzed by thin layer chromatography (TLC). […] After development and complete drying, the TLC plates were cut into 21 fractions, and the radioactivity associated with each fraction was measured using a γ-ray counter (AccuFLEX γ 7000, Aloka, Tokyo, Japan). […]

The nature of series [5]: Preliminary study: effect of intraperitoneal paroxetine on hepatobiliary excretion of ^99mTc-PMT, SPECT dynamic imaging. Conditions: CYP2D-inhibited mice, probe ^99mTc-PMT. The method, then:
SPECT imaging of ^123I-BMQ was performed to visualize the accumulation of radioactive metabolite for the purpose of assessing CYP2D activity. […] In a preliminary study, the effect of intraperitoneal administration of paroxetine on hepatobiliary excretion was investigated.

[6] abbreviates: NADPH [+], pooled MLMs, inhibitor 10 μM.
Setting [7] is: mouse bile after iv injection, gallbladder removed, TLC.

Regarding `c1ccc2c(c1)Sc1ccccc1N2CC1CN2CCC1CC2` (racemic) [mequitazine, 10-[(3RS)-1-azabicyclo [2.2.2]oct-3-ylmethyl]-10H-phenothiazine], the “percentage of metabolites produced from ^125I-BMQ” value (“percentage of metabolites produced” below) in series [1] (setting [6]) is 1.34%. The molecule also came in with an inhibition at 15 min, 10 µM in series [1] of 94%.

As for `[125I]c1ccc(C[N+]23CCC(CC2)C(CN2c4ccccc4Sc4ccccc42)C3)cc1` (stereo not drawn) [^125I-BMQ, ^125I-4-iodobenzylmequitazine], the percentage of metabolites in series [1] (NADPH [−], pooled MLMs, no inhibitor) came out at 2.64%. For the same molecule, in series [2] (2 min), the “Biological distribution, Blood” value is 1.71 ± 0.40 %ID/g; the “Biological distribution, Brain” value is reported as 0.12 ± 0.02 %ID/g; the “Biological distribution, Gall bladder” value amounted to 4.16 ± 4.04 %ID/g; the “Biological distribution, Heart” value stood at 0.78 ± 0.14 %ID/g. Also, in series [2] (2 min), the “Biological distribution, Intestines” value is given as 1.52 ± 0.17 %ID/organ; the “Biological distribution, Kidney” value is 8.04 ± 0.39 %ID/g; the “Biological distribution, Liver” value amounted to 10.58 ± 0.30 %ID/g; the “Biological distribution, Lung” value amounted to 0.77 ± 0.12 %ID/g. Further, in series [2] (2 min), the “Biological distribution, Pancreas” value worked out at 0.51 ± 0.05 %ID/g; the “Biological distribution, Spleen” value was 0.46 ± 0.11 %ID/g; the “Biological distribution, Stomach” value came out at 0.14 ± 0.01 %ID/organ; the “Biological distribution, Thyroid” value is on record as 1.19 ± 0.23 %ID/g. Also, the “Biological distribution, Urine” value in series [2] (2 min) was found to be 0.10 ± 0.10 %ID/organ. Also, in series [2] (10 min), the “Biological distribution, Blood” value was found to be 0.32 ± 0.07 %ID/g; the “Biological distribution, Brain” value was found to be 0.08 ± 0.02 %ID/g; the “Biological distribution, Gall bladder” value is recorded as 13.28 ± 14.03 %ID/g; the “Biological distribution, Heart” value is reported as 0.47 ± 0.11 %ID/g. Also, in series [2] (10 min), the “Biological distribution, Intestines” value turned out to be 3.90 ± 1.55 %ID/organ; the “Biological distribution, Kidney” value is on record as 7.84 ± 0.50 %ID/g; the “Biological distribution, Liver” value is on record as 10.55 ± 0.48 %ID/g; the “Biological distribution, Lung” value is 0.46 ± 0.28 %ID/g. Besides, in series [2] (10 min), the “Biological distribution, Pancreas” value came out at 0.41 ± 0.03 %ID/g; the “Biological distribution, Spleen” value worked out at 0.26 ± 0.01 %ID/g; the “Biological distribution, Stomach” value came out at 1.33 ± 1.08 %ID/organ; the “Biological distribution, Thyroid” value is given as 0.57 ± 0.15 %ID/g. Further, in series [2] (10 min), the “Biological distribution, Urine” value was found to be 0.06 ± 0.07 %ID/organ. Moreover, in series [2] (30 min), the “Biological distribution, Blood” value is recorded as 0.30 ± 0.16 %ID/g; the “Biological distribution, Brain” value was found to be 0.14 ± 0.10 %ID/g; the “Biological distribution, Gall bladder” value worked out at 24.43 ± 6.95 %ID/g; the “Biological distribution, Heart” value is reported as 0.52 ± 0.23 %ID/g. Moreover, in series [2] (30 min), the “Biological distribution, Intestines” value is 7.06 ± 1.89 %ID/organ; the “Biological distribution, Kidney” value was determined as 8.70 ± 1.50 %ID/g; the “Biological distribution, Liver” value turned out to be 8.45 ± 0.99 %ID/g; the “Biological distribution, Lung” value is reported as 0.40 ± 0.20 %ID/g. In series [2] (30 min), the “Biological distribution, Pancreas” value is reported as 0.63 ± 0.25 %ID/g; the “Biological distribution, Spleen” value amounted to 0.24 ± 0.08 %ID/g; the “Biological distribution, Stomach” value came to 0.42 ± 0.36 %ID/organ; the “Biological distribution, Thyroid” value is listed as 1.16 ± 0.60 %ID/g. Further, the “Biological distribution, Urine” value in series [2] (30 min) turned out to be 0.30 ± 0.26 %ID/organ. Moreover, in series [2] (60 min), the “Biological distribution, Blood” value was 0.11 ± 0.01 %ID/g; the “Biological distribution, Brain” value is given as 0.05 ± 0.01 %ID/g; the “Biological distribution, Gall bladder” value is on record as 23.28 ± 9.55 %ID/g; the “Biological distribution, Heart” value came to 1.00 ± 0.13 %ID/g. Further, in series [2] (60 min), the “Biological distribution, Intestines” value was determined as 14.26 ± 1.26 %ID/organ; the “Biological distribution, Kidney” value was determined as 18.07 ± 2.42 %ID/g; the “Biological distribution, Liver” value came out at 6.61 ± 0.90 %ID/g; the “Biological distribution, Lung” value is on record as 0.55 ± 0.13 %ID/g. Besides, in series [2] (60 min), the “Biological distribution, Pancreas” value turned out to be 0.84 ± 0.29 %ID/g; the “Biological distribution, Spleen” value was determined as 0.86 ± 0.12 %ID/g; the “Biological distribution, Stomach” value is listed as 0.63 ± 0.41 %ID/organ; the “Biological distribution, Thyroid” value worked out at 1.03 ± 0.21 %ID/g. In addition, in series [2] (60 min), the “Biological distribution, Urine” value is 0.47 ± 0.55 %ID/organ. Besides, in series [2] (120 min), the “Biological distribution, Blood” value is listed as 0.09 ± 0.01 %ID/g; the “Biological distribution, Brain” value is 0.05 ± 0.01 %ID/g; the “Biological distribution, Gall bladder” value was determined as 28.93 ± 14.65 %ID/g; the “Biological distribution, Heart” value is 0.92 ± 0.11 %ID/g. Further, in series [2] (120 min), the “Biological distribution, Intestines” value was determined as 16.36 ± 1.01 %ID/organ; the “Biological distribution, Kidney” value was 16.10 ± 2.91 %ID/g; the “Biological distribution, Liver” value is recorded as 6.02 ± 1.23 %ID/g; the “Biological distribution, Lung” value was 0.36 ± 0.06 %ID/g. In series [2] (120 min), the “Biological distribution, Pancreas” value amounted to 0.73 ± 0.26 %ID/g; the “Biological distribution, Spleen” value came to 0.83 ± 0.32 %ID/g; the “Biological distribution, Stomach” value is reported as 0.44 ± 0.07 %ID/organ; the “Biological distribution, Thyroid” value was found to be 1.14 ± 0.08 %ID/g. The “Biological distribution, Urine” value in series [2] (120 min) stood at 0.11 ± 0.01 %ID/organ. Further, in series [3] (gallbladder removed 60 min after the mice were injected), the “radioactivity in the bile that was radioactive metabolite” value was “more than 90%”. Also, in series [3] (setting [7]), the “^125I-BMQ (parent) in bile” value was “no ^125I-BMQ was detected” and the “percentage of metabolites of ^125I-BMQ in bile” value is over 90%. For the same molecule, the “percentage of radioactive metabolite” value in series [4] is 3%–25%.

For `CC(=O)N1CCN(c2ccc(OCC3COC(Cn4ccnc4)(c4ccc(Cl)cc4Cl)O3)cc2)CC1` (stereo not drawn) [ketoconazole], in series [1] (setting [6]), the “percentage of ^125I-BMQ compared with NADPH [+]” value is reported as “slightly lower, but not significantly”.

Consider `Fc1ccc([C@@H]2CCNC[C@H]2COc2ccc3c(c2)OCO3)cc1` [paroxetine], for which the “percentage of metabolites produced” value in series [1] (setting [6]) was 12.5%. This molecule also had an inhibition at 15 min, 10 µM in series [1] of 42%. Also, the “effect on biliary excretory function” value in series [5] is “did not affect the biliary excretory function itself”.

For `C=C[C@H]1C[N@@]2CC[C@H]1C[C@@H]2[C@@H](O)c1ccnc2ccc(OC)cc12` [quinidine], the “percentage of metabolites produced” value in series [1] (setting [6]) is 4.47%. This molecule yielded an inhibition at 15 min, 10 µM in series [1] of 80%.

These data come from publication PMC11219936, “Development of radioiodine-labeled mequitazine for evaluation of hepatic CYP2D activity” (Frontiers in Pharmacology, 2024).
